Experimental data taken from patent US20240238423A9, “TETRAHYDROISOQUINOLINE HETEROBIFUNCTIONAL BCL-XL DEGRADERS” (Treeline Biosciences, Inc., priority 2022, published 2024).

Molecular target: T1, Human BCL-XL protein (N-terminal HiBiT tagged BCL-XL in HT1080 cells) (Homo sapiens, UniProt Q07817)
T1 construct: expressed in transfected cells; host or cells: HT-1080 (ATCC CCL-121), stably transduced with lentivirus pLV-UBC-N-HiBiT-BCL-XL-PGK-puro and selected with puromycin
Assay: HiBiT based degradation assay
Type: cell-based
Conditions: HT1080 cells expressing HiBiT-BCL-XL, 24 h; for Ymin (24 h): BCL-XL degradation normalized with DMSO control; for DC50: BCL-XL degradation, read-out: EC50 (24 h)
Method in brief: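 HT1080 cells stably transduced by lentivirus with N-terminally HiBiT-tagged human BCL-XL and kept under 1 μg/mL puromycin selection were seeded at three thousand cells per well in 40 μL RPMI 1640 into 384-well plates pre-spotted with compounds across a concentration range. Luminescence was read on a PHERAstar FSX, normalized to DMSO, and fitted with a four-parameter logistic model.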

T1 sequence (Q07817 whole entry): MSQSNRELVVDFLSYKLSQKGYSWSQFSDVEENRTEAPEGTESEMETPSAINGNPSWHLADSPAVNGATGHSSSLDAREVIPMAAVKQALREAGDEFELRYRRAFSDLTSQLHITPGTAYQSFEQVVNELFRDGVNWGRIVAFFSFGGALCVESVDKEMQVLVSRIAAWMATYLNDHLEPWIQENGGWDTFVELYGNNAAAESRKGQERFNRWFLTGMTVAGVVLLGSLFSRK

SMILES | Ymin (24 h) | DC50 [nM]
Cc1c(OCCC2CCN(CCN3CCC(c4ccc5c(C6CCC(=O)NC6=O)nn(C)c5c4)CC3)CC2)cccc1-c1ccc(N2CCc3cccc(C(=O)Nc4nc5ccccc5s4)c3C2)nc1C(=O)O (stereo not drawn) [Compound 248, 6-[8-(1,3-benzothiazol-2-ylcarbamoyl)-3,4-dihydro-1H-isoquinolin-2-yl]-3-[3-[2-[1-[2-[4-[3-(2,6-dioxo-3-piperidyl)-1-methyl-indazol-6-yl]-1-piperidyl]ethyl]-4-piperidyl]ethoxy]-2-methyl-phenyl]pyridine-2-carboxylic acid] | A (Ymin < 50%) | < 100
Cc1c(OCCC2CCN(CCN3CCC(c4cccc5c(C6CCC(=O)NC6=O)nn(C)c45)CC3)CC2)cccc1-c1ccc(N2CCc3cccc(C(=O)Nc4nc5ccccc5s4)c3C2)nc1C(=O)O (stereo not drawn) [Compound 249, 6-[8-(1,3-benzothiazol-2-ylcarbamoyl)-3,4-dihydro-1H-isoquinolin-2-yl]-3-[3-[2-[1-[2-[4-[3-(2,6-dioxo-3-piperidyl)-1-methyl-indazol-7-yl]-1-piperidyl]ethyl]-4-piperidyl]ethoxy]-2-methyl-phenyl] pyridine-2-carboxylic acid] | A (Ymin < 50%) | < 100
Cc1cc(O[C@H]2CC[C@H](CCCN3CCN(c4cccc5c(C6CCC(=O)NC6=O)nn(C)c45)CC3)CC2)ccc1-c1ccc(N2CCc3cccc(C(=O)Nc4nc5ccccc5s4)c3C2)nc1C(=O)O (stereo partly drawn) [Compound 250a, 6-(8-(benzo[d]thiazol-2-ylcarbamoyl)-3,4-dihydroisoquinolin-2(1H)-yl)-3-(4-(((1s,4r)-4-(3-(4-(3-(2,6-dioxopiperidin-3-yl)-1-methyl-1H-indazol-7-yl)piperazin-1-yl)propyl)cyclohexyl)oxy)-2-methylphenyl)picolinic acid] | A (Ymin < 50%) | < 100
Cc1cc(O[C@H]2CC[C@H](CCC(=O)N3CCN(c4ccc5c(C6CCC(=O)NC6=O)nn(C)c5c4)CC3)CC2)ccc1-c1ccc(N2CCc3cccc(C(=O)Nc4nc5ccccc5s4)c3C2)nc1C(=O)O (stereo partly drawn) [Compound 251a, 6-(8-(benzo[d]thiazol-2-ylcarbamoyl)-3,4-dihydroisoquinolin-2(1H)-yl)-3-(4-(((1r,4r)-4-(3-(4-(3-(2,6-dioxopiperidin-3-yl)-1-methyl-1H-indazol-6-yl)piperazin-1-yl)-3-oxopropyl)cyclohexyl)oxy)-2-methylphenyl)picolinic acid] | A (Ymin < 50%) | < 100
Cc1cc(O[C@H]2CC[C@H](CCCN3CCN(c4ccc5c(C6CCC(=O)NC6=O)nn(C)c5c4)CC3)CC2)ccc1-c1ccc(N2CCc3cccc(C(=O)Nc4nc5ccccc5s4)c3C2)nc1C(=O)O (stereo partly drawn) [Compound 254a, 6-(8-(benzo[d]thiazol-2-ylcarbamoyl)-3,4-dihydroisoquinolin-2(1H)-yl)-3-(4-(((1s,4r)-4-(3-(4-(3-(2,6-dioxopiperidin-3-yl)-1-methyl-1H-indazol-6-yl)piperazin-1-yl)propyl)cyclohexyl)oxy)-2-methylphenyl)picolinic acid] | A (Ymin < 50%) | < 100
Cc1c(OCCCC2CCN(CCN3CCC(c4ccc5c(C6CCC(=O)NC6=O)nn(C)c5c4)CC3)CC2)cccc1-c1ccc(N2CCc3cccc(C(=O)Nc4nc5ccccc5s4)c3C2)nc1C(=O)O (stereo not drawn) [Compound 255, 6-[8-(1,3-benzothiazol-2-ylcarbamoyl)-3,4-dihydro-1H-isoquinolin-2-yl]-3-[3-[3-[1-[2-[4-[3-(2,6-dioxo-3-piperidyl)-1-methyl-indazol-6-yl]-1-piperidyl]ethyl]-4-piperidyl]propoxy]-2-methyl-phenyl]pyridine-2-carboxylic acid] | A (Ymin < 50%) | < 100
Cc1c(OCCCCC2CCN(CC3CCN(c4ccc5c(C6CCC(=O)NC6=O)nn(C)c5c4)CC3)CC2)cccc1-c1ccc(N2CCc3cccc(C(=O)Nc4nc5ccccc5s4)c3C2)nc1C(=O)O (stereo not drawn) [Compound 257, 6-[8-(1,3-benzothiazol-2-ylcarbamoyl)-3,4-dihydro-1H-isoquinolin-2-yl]-3-[3-[4-[1-[[1-[3-(2,6-dioxo-3-piperidyl)-1-methyl-indazol-6-yl]-4-piperidyl]methyl]-4-piperidyl]butoxy]-2-methyl-phenyl]pyridine-2-carboxylic acid] | A (Ymin < 50%) | < 100

Next, values leading:

Ymin (24 h) | DC50 [nM] | SMILES
B (50% ≤ Ymin < 70%) | < 100 | Cc1c(OCCCN2CCN(CC(=O)Nc3ccc4c(C5CCC(=O)NC5=O)nn(C)c4c3)C[C@H]2C(F)(F)F)cccc1-c1ccc(N2CCc3cccc(C(=O)Nc4nc5ccccc5s4)c3C2)nc1C(=O)O (stereo partly drawn) [Compound 245b, 6-(8-(benzo[d]thiazol-2-ylcarbamoyl)-3,4-dihydroisoquinolin-2(1H)-yl)-3-(3-(3-((2S)-4-(2-((3-(2,6-dioxopiperidin-3-yl)-1-methyl-1H-indazol-6-yl)amino)-2-oxoethyl)-2-(trifluoromethyl)piperazin-1-yl)propoxy)-2-methylphenyl)picolinic acid]
B (50% ≤ Ymin < 70%) | < 100 | Cc1c(OCCCN2CCN(CC(=O)Nc3cccc4c(C5CCC(=O)NC5=O)nn(C)c34)C[C@@H]2C(F)(F)F)cccc1-c1ccc(N2CCc3cccc(C(=O)Nc4nc5ccccc5s4)c3C2)nc1C(=O)O (stereo partly drawn) [Compound 246a, 6-(8-(benzo[d]thiazol-2-ylcarbamoyl)-3,4-dihydroisoquinolin-2(1H)-yl)-3-(3-(3-((2R)-4-(2-((3-(2,6-dioxopiperidin-3-yl)-1-methyl-1H-indazol-7-yl)amino)-2-oxoethyl)-2-(trifluoromethyl)piperazin-1-yl)propoxy)-2-methylphenyl)picolinic acid]
B (50% ≤ Ymin < 70%) | < 100 | Cc1c(OCCCN2CCN(CC(=O)Nc3cccc4c(C5CCC(=O)NC5=O)nn(C)c34)C[C@H]2C(F)(F)F)cccc1-c1ccc(N2CCc3cccc(C(=O)Nc4nc5ccccc5s4)c3C2)nc1C(=O)O (stereo partly drawn) [Compound 246b, 6-(8-(benzo[d]thiazol-2-ylcarbamoyl)-3,4-dihydroisoquinolin-2(1H)-yl)-3-(3-(3-((2S)-4-(2-((3-(2,6-dioxopiperidin-3-yl)-1-methyl-1H-indazol-7-yl)amino)-2-oxoethyl)-2-(trifluoromethyl)piperazin-1-yl)propoxy)-2-methylphenyl)picolinic acid]
A (Ymin < 50%) | < 100 | Cc1c(OCCCC2CCN(CC3CCN(c4ccc5c(C6CCC(=O)NC6=O)nn(C)c5c4)CC3)CC2)cccc1-c1ccc(N2CCc3cccc(C(=O)Nc4nc5ccccc5s4)c3C2)nc1C(=O)O (stereo not drawn) [Compound 247, 6-[8-(1,3-benzothiazol-2-ylcarbamoyl)-3,4-dihydro-1H-isoquinolin-2-yl]-3-[3-[3-[1-[[1-[3-(2,6-dioxo-3-piperidyl)-1-methyl-indazol-6-yl]-4-piperidyl]methyl]-4-piperidyl]propoxy]-2-methyl-phenyl]pyridine-2-carboxylic acid]
A (Ymin < 50%) | < 100 | Cc1cc(O[C@H]2CC[C@H](CCC(=O)N3CCN(c4cccc5c(C6CCC(=O)NC6=O)nn(C)c45)CC3)CC2)ccc1-c1ccc(N2CCc3cccc(C(=O)Nc4nc5ccccc5s4)c3C2)nc1C(=O)O (stereo partly drawn) [Compound 252a, 6-(8-(benzo[d]thiazol-2-ylcarbamoyl)-3,4-dihydroisoquinolin-2(1H)-yl)-3-(4-(((1r,4r)-4-(3-(4-(3-(2,6-dioxopiperidin-3-yl)-1-methyl-1H-indazol-7-yl)piperazin-1-yl)-3-oxopropyl)cyclohexyl)oxy)-2-methylphenyl)picolinic acid]
B (50% ≤ Ymin < 70%) | 100 to 1000 | Cc1c(O[C@H]2CC[C@H](CCC(=O)N3CCC(c4cccc5c(C6CCC(=O)NC6=O)nn(C)c45)CC3)CC2)cccc1-c1ccc(N2CCc3cccc(C(=O)Nc4nc5ccccc5s4)c3C2)nc1C(=O)O (stereo partly drawn) [Compound 253a, 6-(8-(benzo[d]thiazol-2-ylcarbamoyl)-3,4-dihydroisoquinolin-2(1H)-yl)-3-(3-(((1r,4r)-4-(3-(4-(3-(2,6-dioxopiperidin-3-yl)-1-methyl-1H-indazol-7-yl)piperidin-1-yl)-3-oxopropyl)cyclohexyl)oxy)-2-methylphenyl)picolinic acid]
A (Ymin < 50%) | < 100 | Cc1c(OCCCC2CCN(CCN3CCC(c4cccc5c(C6CCC(=O)NC6=O)nn(C)c45)CC3)CC2)cccc1-c1ccc(N2CCc3cccc(C(=O)Nc4nc5ccccc5s4)c3C2)nc1C(=O)O (stereo not drawn) [Compound 256, 6-[8-(1,3-benzothiazol-2-ylcarbamoyl)-3,4-dihydro-1H-isoquinolin-2-yl]-3-[3-[3-[1-[2-[4-[3-(2,6-dioxo-3-piperidyl)-1-methyl-indazol-7-yl]-1-piperidyl]ethyl]-4-piperidyl]propoxy]-2-methyl-phenyl]pyridine-2-carboxylic acid]
A (Ymin < 50%) | < 100 | Cc1c(OCCC2CCN(CC3CCN(c4ccc5c(C6CCC(=O)NC6=O)nn(C)c5c4)CC3)CC2)cccc1-c1ccc(N2CCc3cccc(C(=O)Nc4nc5ccccc5s4)c3C2)nc1C(=O)O (stereo not drawn) [Compound 258, 6-[8-(1,3-benzothiazol-2-ylcarbamoyl)-3,4-dihydro-1H-isoquinolin-2-yl]-3-[3-[2-[1-[[1-[3-(2,6-dioxo-3-piperidyl)-1-methyl-indazol-6-yl]-4-piperidyl]methyl]-4-piperidyl]ethoxy]-2-methyl-phenyl]pyridine-2-carboxylic acid]
